Source: PubChem BioAssay (NCI)
Values joined by “and” are separate entries in the source; they are usually repeats but may differ in a detail not shown here. Equal values may be shown once.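 Exposure lasted 48 hours, with cells grown in 96-well plates and compounds tested at five concentrations. Here, GI50 denotes the concentration required for 50% inhibition of growth. TGI: total growth inhibition.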

Columns and labels:
Assay in all cases: NCI tumour cell line growth inhibition, 48 h
ACHN renal = system: ACHN renal
CCRF-CEM leukemia = system: CCRF-CEM leukemia
EKVX NSCLC = system: EKVX NSCLC
HCC-2998 colon = system: HCC-2998 colon
KM12 colon = system: KM12 colon
MOLT-4 leukemia = system: MOLT-4 leukemia
NCI-H23 lung = system: NCI-H23 lung
NCI-H522 lung = system: NCI-H522 lung
SR leukemia = system: SR leukemia
UACC-62 melanoma = system: UACC-62 melanoma

Compound	GI50 (ACHN renal)	TGI (ACHN renal) [µM]	GI50 (CCRF-CEM leukemia)	TGI (CCRF-CEM leukemia) [µM]	GI50 (EKVX NSCLC)	TGI (EKVX NSCLC) [µM]	GI50 (HCC-2998 colon)	TGI (HCC-2998 colon) [µM]	GI50 (KM12 colon)	TGI (KM12 colon)	GI50 (MOLT-4 leukemia)	TGI (MOLT-4 leukemia)	GI50 (NCI-H23 lung)	TGI (NCI-H23 lung)	GI50 (NCI-H522 lung)	TGI (NCI-H522 lung)	GI50 (SR leukemia)	TGI (SR leukemia)	GI50 (UACC-62 melanoma) [µM]	TGI (UACC-62 melanoma) [µM]
C=C1C(=O)O[C@H]2[C@H]1CC/C(COC(=O)NCc1c[nH]c3ccccc13)=C\CC[C@@]1(C)O[C@@H]21	1.97 µM	7.86	1.48 µM	8.27	2.23 µM	8.84	6.41 µM	19	13.8 µM	30.7 µM	2.71 µM	9.13 µM	8.37 µM	24.5 µM	1.23 µM	2.58 µM	2.22 µM	8.35 µM	1.72	3.95
CCN(CC)CCCC(C)Nc1ccnc2cc(Cl)ccc12 (centres undefined)	> 100 µM	> 100	38.8 µM	> 100	–	> 100	–	48.8	79.5 µM	> 100 µM	62.9 µM	> 100 µM and 50 µM	–	> 100 µM	> 100 µM	> 100 µM	–	66.2 µM	37.6	> 100
Cc1ccc(Nc2nccc(N(C)c3ccc4c(C)n(C)nc4c3)n2)cc1S(N)(=O)=O	4.08 µM and 3.12 µM and 4.98 µM	> 100	4.37 µM and 7.01 µM and 8.07 µM	> 100	3.22 µM and 4.11 µM and 15.2 µM	> 100	> 100 µM and 29.8 µM	> 100	5.01 µM and 2.6 µM and 5.56 µM	> 100 µM and > 10 µM and 27 µM	4 µM and 2.26 µM and 5.27 µM	24 µM and > 10 µM and 47.1 µM	4.03 µM and 2.92 µM and 6.49 µM	> 100 µM and > 10 µM and 93.1 µM	5.33 µM and 4 µM and 10.7 µM	39 µM and > 10 µM and 28 µM	4.08 µM and 3.49 µM and 5.95 µM	> 100 µM and > 10 µM and 37.9 µM	–	–
COc1cc2c3cc1Oc1c(OC)c(OC)cc4c1C(=NCC4)Cc1ccc(cc1)Oc1cc(ccc1O)C[C@H]3N(C)CC2	–	83.5	–	> 100	–	> 100	–	26.1	–	29.8 µM	–	66.2 µM	–	44 µM	–	25.3 µM	–	31.2 µM	–	30.3
CN(C)CCCN(CCC1CCCCC1)CCC1CCCCC1	4.14 µM	14.4	1.72 µM	6.38	5.68 µM	18.8	0.325 µM	0.915	1.78 µM	3.44 µM	1.85 µM	7.93 µM	4.8 µM	17.9 µM	3.1 µM	8.3 µM	0.731 µM	3.25 µM	1.79	3.35
Cc1ccc2oc(=O)cc(/C(=C3/C=CC=N3)c3ccc[nH]3)c2c1	0.694 µM	8.56	0.29 µM	4.01	0.435 µM	4.51	1.15 µM	3.12	0.344 µM	1.71 µM	0.378 µM	2.14 µM	0.484 µM	3.66 µM	1.53 µM	5.22 µM	0.34 µM	1.46 µM	0.373	1.98
O=C1C(=C(C(F)(F)Cl)C(F)(F)Cl)C2CCC1C2 (centres undefined)	–	3.32	–	> 10	–	> 10	–	> 10	–	> 8.65 µM	–	> 3.53 µM	–	4.63 µM	–	0.56 µM	–	> 3.34 µM	–	4.4
COC(=O)c1ccc2c(c1)C(=O)c1c-2n(CCCCl)c(=O)c2cc([N+](=O)[O-])ccc12	45.2 µM	> 100	52.8 µM	> 100	> 100 µM	> 100	> 100 µM	> 100	> 100 µM	> 100 µM	26 µM	> 100 µM	94.6 µM	> 100 µM	51 µM	> 100 µM	4.94 µM	> 100 µM	27.5	> 100
CCCCN1CCCC[C@@H]1C(=O)N[C@H](C(=O)N(C)[C@H](C[C@@H](OC(C)=O)c1nc(C(=O)NC2CCC(C(=O)OC)CC2)cs1)C(C)C)C(C)C (some centres undefined)	2.39 µM	> 25	1.1 µM	> 25	1.15 µM	> 25	4.02 µM	> 25	1.07 µM	> 25 µM	1.18 µM	> 25 µM	1.5 µM	> 25 µM	0.897 µM	7.04 µM	0.242 µM	> 25 µM	1.06	> 25
C[C@H]1/C(=C/C(=O)OCCN(C)C)CC[C@H]2[C@H]1C(=O)C[C@H]1C(C)(C)[C@@H](O)CC[C@]21C	–	> 100	–	> 100	–	> 100	–	> 100	–	> 100 µM	–	> 100 µM	–	> 100 µM	–	> 100 µM	–	> 100 µM	–	> 100
COc1ccc(C#Cc2ccc(=O)oc2-c2cc(OC)c(OC)c(OC)c2)cc1O	17.2 µM	> 100	6.95 µM	> 100	22.2 µM	> 100	3.36 µM	44	3.54 µM	> 100 µM	6.3 µM	> 100 µM	10.7 µM	> 100 µM	1.1 µM	22.3 µM	0.225 µM	18.7 µM	5.53	> 100
CC(=O)/C(=C/c1ccccc1)C(=O)CC(C)C	11.2 µM	26.3	3.96 µM	> 100	17.3 µM	40.9	9.49 µM	21.7	2.25 µM	5.01 µM	3.59 µM	79.4 µM	18.4 µM	43.1 µM	9.68 µM	22 µM	2.46 µM	7.37 µM	6.54	20.9
O=C(CCl)NCCNc1nccc(Nc2ccc(S(=O)(=O)Nc3ccccn3)cc2)n1	2.6 µM	10.8	2.19 µM	9.03	3.15 µM	12.8	4.8 µM	20.5	3.12 µM	11.6 µM	1.91 µM	11.9 µM	2.04 µM	6.11 µM	1.61 µM	3.98 µM	2.45 µM	11.2 µM	1.74	4.24
